Test results as given in patent US9321798B2, “Phosphoramidite derivatives of gemcitabine for use in the treatment of cancer” (NuCana BioMed Limited, priority 2010, dated 2016).

test system: Human colon cancer cell line HRT18; test: MTT cytotoxicity / cell proliferation assay in HRT18 colon tumour cell line; format: cell-based; details: HRT-18, HRT18 cells, 72 h incubation, 0.128-2000 nM, read-out: EC50 (nM) Colorectal cell HRT18
Text: The compounds can be assayed by many in vitro or in vivo methods, but in the first instance a cell proliferation assay is rapid and informative. Many tumour cell lines can be used for the assay, we herein report typical data for target compounds in HRT18 colon tumour cell line, using standard MTT assay methods, typical in many laboratories.
Human colon cancer cell line HRT18 were purchased from the European Collection of Animal Cell Cultures (ECACC, Salisbury, England). Cytoxicity assay was based on MTT assay as we previously reported. The method is based on the ability of viable mitochondria to convert MTT, a soluble tetrazolium salt (3-[4,5-dimethylthiazd-2-yl]-2,5-diphenyltetrazolium bromide) into an insoluble formazan precipitate that is dissolved and quantified by spectrophotometry. A 96-well culture cell culture plate was used. Cells were counted with a haemocytomete counting chamber and a specific number (4000 per well) of cells were seeded to each well with culture medium (DMEM). Compounds, dissolved in DMSO, were series diluted (1:5) in culture medium, to cover a final concentration range between 0.128 and 2000 nM. The culture plate was incubated for 72 h at 37° C. The cells were washed twice with BSS. A solution of MTT in 0.5 mg/mL in culture medium was added into each well. The culture plate was then incubated at 37° C. for 4 h. MTT was then removed by aspiration. The crystals produced by MTT reagent within the cells were then extracted by the addition of 100 µL of Triton X100 (10% in water). The cells were incubated at 4° C. for 24 h. The absorbance of the colorimetric products was then measured at a wavelength of 540 nm using a spectrophotometer (Titertecek).

Compound	EC50 [nM]
C[C@H](NP(=O)(N[C@@H](C)C(=O)OCc1ccccc1)OC[C@H]1O[C@@H](n2ccc(N)nc2=O)C(F)(F)C1O)C(=O)OCc1ccccc1 (stereo partly drawn) [CPF457, 2′-Deoxy-2′,2′-difluoro-D-cytidine-5′-O-bis(benzoxy-L-alaninyl)] phosphate]	14
C[C@H](NP(=O)(N[C@@H](C)C(=O)OC1CCCCC1)OC[C@H]1O[C@@H](n2ccc(N)nc2=O)C(F)(F)C1O)C(=O)OC1CCCCC1 (stereo partly drawn) [CPF458]	31
CCOC(=O)[C@H](C)NP(=O)(N[C@@H](C)C(=O)OCC)OC[C@H]1O[C@@H](n2ccc(N)nc2=O)C(F)(F)C1O (stereo partly drawn) [CPF459, 2′-Deoxy-2′,2′-difluoro-D-cytidine-5′-O-bis(ethoxy-L-alaninyl)phosphate]	42
C[C@H](NP(=O)(N[C@@H](C)C(=O)OCC(C)(C)C)OC[C@H]1O[C@@H](n2ccc(N)nc2=O)C(F)(F)C1O)C(=O)OCC(C)(C)C (stereo partly drawn) [CPF460]	1.6
CC(C)OC(=O)[C@H](C)NP(=O)(N[C@@H](C)C(=O)OC(C)C)OC[C@H]1O[C@@H](n2ccc(N)nc2=O)C(F)(F)C1O (stereo partly drawn) [CPF461]	3.2
Nc1ccn([C@@H]2O[C@H](CO)[C@@H](O)C2(F)F)c(=O)n1 [Gemcitabine, gemcitabine]	64
